# Results from patent US5552427A, “Glutaminase inhibitory compounds, compositions, and methods of use” (Takeda Chemical Industries, Ltd., priority 1993, dated 1996).
# Structures can show the parent of a compound that is named as a salt. Where two headings read alike, the source gives them in different places.
# Key:
# [1] = test system: human colon carcinoma cells WiDr; test: In vitro cell proliferation inhibitory activity (Table 1), colon carcinoma cells WiDr, MTT; format: cell-based; conditions: 72 h, read-out: IC50, Colon carcinoma cells WiDr
# [2] = test system: human normal fetal pulmonary fibroblasts HEL; test: In vitro cell proliferation inhibitory activity (Table 1), normal cells HEL, MTT; format: cell-based; conditions: Pulmonary fibroblast, 72 h, read-out: IC50, Normal cells HEL
# [3] = molecular target: T1, mitochondrial membrane enzyme glutaminase (Homo sapiens, UniProt O94925); test: Inhibitory activity against the mitochondrial membrane enzyme glutaminase (crude enzyme of WiDr cells); format: biochemical; conditions: WiDr mitochondrial fraction, tritium-labelled glutamine 0.8 μM, phosphoric acid 200 mM, pH 8.0, 37° C., 15 minutes; read-out: IC50, enzymatic activity of glutaminase
# T1 sequence (O94925 73-669 limits assumed): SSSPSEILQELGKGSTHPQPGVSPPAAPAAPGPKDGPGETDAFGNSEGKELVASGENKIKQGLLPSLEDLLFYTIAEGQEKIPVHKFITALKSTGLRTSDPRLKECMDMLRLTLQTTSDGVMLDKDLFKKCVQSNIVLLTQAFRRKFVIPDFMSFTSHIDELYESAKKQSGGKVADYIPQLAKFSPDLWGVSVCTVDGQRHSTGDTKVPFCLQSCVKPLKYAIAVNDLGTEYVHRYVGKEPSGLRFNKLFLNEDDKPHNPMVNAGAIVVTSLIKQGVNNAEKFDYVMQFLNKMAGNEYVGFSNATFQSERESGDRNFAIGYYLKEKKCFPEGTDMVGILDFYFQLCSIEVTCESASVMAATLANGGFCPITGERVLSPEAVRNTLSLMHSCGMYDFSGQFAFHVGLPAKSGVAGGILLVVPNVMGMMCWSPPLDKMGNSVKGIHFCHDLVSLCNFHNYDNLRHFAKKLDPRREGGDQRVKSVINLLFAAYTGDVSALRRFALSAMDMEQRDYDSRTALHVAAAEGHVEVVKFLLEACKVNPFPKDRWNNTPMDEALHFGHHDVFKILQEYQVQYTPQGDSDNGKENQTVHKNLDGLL
# Breast carcinoma Hs578T = test: Cell proliferation inhibitory test (Table 2); format: cell-based; conditions: Homo sapiens, Hs-578T; Breast carcinoma Hs578T (Table 2); read-out: IC50, cell strain Hs578T
# Description: (§1) to that in the control group was calculated, and the IC50 (i.e., a compound concentration required for decreasing the surviving cell amount to 50% of that in the control group) was calculated.
# [4] = test system: Breast carcinoma MDA-MB-231; test: Cell proliferation inhibitory test (Table 2); format: cell-based; conditions: Homo sapiens; Breast carcinoma MDA-MB-231 (Table 2); read-out: IC50, cell strain MDA-MB-231
# Description: as §1
# [5] = test system: Breast carcinoma MDA-MB-453; test: Cell proliferation inhibitory test (Table 2); format: cell-based; conditions: Homo sapiens; Breast carcinoma MDA-MB-453 (Table 2); read-out: IC50, cell strain MDA-MB-453
# Description: as §1
# Breast carcinoma SK-BR-3 = test: Cell proliferation inhibitory test (Table 2); format: cell-based; conditions: Homo sapiens; Breast carcinoma SK-BR-3 (Table 2); read-out: IC50, cell strain SK-BR-3
# Description: as §1
# Breast carcinoma T-47D = test: Cell proliferation inhibitory test (Table 2); format: cell-based; conditions: Homo sapiens, T47D; Breast carcinoma T-47D (Table 2); read-out: IC50, cell strain T-47D
# Description: as §1
# Colon carcinoma LS180 = test: Cell proliferation inhibitory test (Table 2); format: cell-based; conditions: Homo sapiens; Colon carcinoma LS180 (Table 2); read-out: IC50, cell strain LS180
# Description: as §1
# Colon carcinoma LoVo = test: Cell proliferation inhibitory test (Table 2); format: cell-based; conditions: Homo sapiens; Colon carcinoma LoVo (Table 2); read-out: IC50, cell strain LoVo
# Description: as §1
# Colon carcinoma SW403 = test: Cell proliferation inhibitory test (Table 2); format: cell-based; conditions: Homo sapiens, SW-403; Colon carcinoma SW403 (Table 2); read-out: IC50, cell strain SW403
# Description: as §1
# Colon carcinoma SW48 = test: Cell proliferation inhibitory test (Table 2); format: cell-based; conditions: Homo sapiens; Colon carcinoma SW48 (Table 2); read-out: IC50, cell strain SW48
# Description: as §1
# Colon carcinoma SW620 = test: Cell proliferation inhibitory test (Table 2); format: cell-based; conditions: Homo sapiens, SW-620; Colon carcinoma SW620 (Table 2); read-out: IC50, cell strain SW620
# Description: as §1
# Colon carcinoma SW948 = test: Cell proliferation inhibitory test (Table 2); format: cell-based; conditions: Homo sapiens; Colon carcinoma SW948 (Table 2); read-out: IC50, cell strain SW948
# Description: as §1
# Colon carcinoma T84 = test: Cell proliferation inhibitory test (Table 2); format: cell-based; conditions: Colon carcinoma T84 (Table 2); read-out: IC50, cell strain T84
# Description: as §1
# Colon carcinoma WiDr = test: Cell proliferation inhibitory test (Table 2); format: cell-based; conditions: Homo sapiens; Colon carcinoma WiDr (Table 2); read-out: IC50, cell strain WiDr
# Description: as §1
# Lung carcinoma A549 = test: Cell proliferation inhibitory test (Table 2); format: cell-based; conditions: Homo sapiens; Lung carcinoma A549 (Table 2); read-out: IC50, cell strain A549
# Description: as §1
# Throat cancer KB = test: Cell proliferation inhibitory test (Table 2); format: cell-based; conditions: Throat cancer KB (Table 2); read-out: IC50, cell strain KB
# Description: as §1
# [6] = test system: large intestinal cancer cell strains; test: Cell proliferation inhibitory tests, panel as a whole (selectivity in words); format: cell-based, human; conditions: large intestinal cancer cells / tumor cells
# Description: A cellular suspension (50 μl, 2,000 cells) of the human colon carcinoma cells WiDr or human normal fetal pulmonary fibroblasts HEL was inoculated in a 96-well microplate, and incubated at 37° C. in a 5% carbonic acid gas incubator. The next day, a 2-fold serially diluted solution (50 μl) of each compound was added and incubated for 3 days. The culture broth containing the compound was removed, the cells were washed, MTT pigment solution was added, and the surviving cell number was determined (Tada et al., J. Immunol. Methods, 93, 157-165 (1986)). The cell amount in a control group not treated with the compound solution was used as a standard (100%). The ratio of the cell amount in each treated group to that in the control group was calculated, and the IC50 (i.e., a compound concentration required for decreasing the surviving cell amount to 50% of that in the control group) was calculated.
# as §1
# [7] = test system: human colon carcinoma cells WiDr transplanted to nude mice; test: In vivo colon carcinoma inhibitory activity, WiDr transplanted to nude mice (Test Example 3); set-up: species or system human cells in Balb/C female nude mice; conditions: oral; for Proliferation rate (tumor volume, treated/control): 3 times a day for 3 days, control = 100
# Description: In vivo colon carcinoma inhibitory activity
# The human colon carcinoma cells WiDr (5,000,000 cells) were subcutaneously transplanted to a thoracic part of each of Balb/C female nude mice (7 weeks of age). On the 5th day after the transplantation, the tumor size was measured. Five mice (per group) with almost the same tumor size were used for this experiment. Each of solutions of 2-amino-1-methylimidazole hydrochloride (50 mg/kg body weight, 100 mg/kg body weight and 200 mg/kg body weight) of the present invention in physiological saline was orally administered 3 times a day for 3 days. The day following the end of the administration, the tumor size was measured. The tumor volume was calculated from the following equation:
# (§2) Tumor volume=(major axis)×(minor axis)×(minor axis)×(1/2)
# (§3) The ratio of the tumor volume in the treated group to that in a control group to which physiological saline was administered was calculated as a proliferation rate.
# [8] = test system: human colon carcinoma cells WiDr transplanted to nude mice; test: Activity of a compound having a protective group at the 2-amino group, WiDr transplanted to nude mice (Test Example 4); format: in vivo, human cells in Balb/C female nude mice; conditions: oral
# Description: Activity of a compound having a protective group at the 2-amino group
# The human colon carcinoma cells WiDr (5,000,000 cells) were subcutaneously transplanted to the thoracic parts of Balb/C female nude mice (7 weeks old). On the 5th day after the transplantation, the tumor cell size was measured. Five mice (per group) with almost the same tumor size were used for this experiment. A solution of 2-benzyloxycarbonylamino-1-methylimidazole hydrochloride (80 mg/kg body weight) of the present invention in physiological saline was orally administered 3 times a day for 3 days. The day following the end of the administration, the tumor cell size was measured. The tumor volume was calculated from the following equation:
# as §2, §3
# [9] = 3 days incubation, MTT (Table 1)
# [10] = HEL, 3 days incubation, MTT (Table 1)
smiles,measurement,setting,value
CN1CCN=C1N [2-Amino-1-methylimidazoline hydrochloride],IC50,[1]; [9],1.4 µg/mL
same,IC50,[2]; [10],> 80 µg/mL
same,IC50,[3],100 mM
"COc1ccc(C=Nc2nccn2C)cc1.Cl [Reference Example 9, N-(1-methylimidazol-2-yl)-4-methoxybenzylideneamine hydrochloride]",IC50,[1]; [9],2.2 µg/mL
same,IC50,[2]; [10],> 80 µg/mL
"Cn1ccnc1NC(=O)CC[C@H](N)C(=O)O [Example 9, (2S)-2-amino-4-[(1-methylimidazol-2-yl)carbamoyl]butyric acid]",IC50,[1]; [9],5 µg/mL
same,IC50,[2]; [10],> 80 µg/mL
"COC(=O)[C@@H](N)CC(=O)Nc1nccn1C.Cl.Cl [Example 13, methyl (2S)-2-amino-3-[(1-methylimidazol-2-yl)carbamoyl]propionate dihydrochloride]",IC50,[1]; [9],11 µg/mL
same,IC50,[2]; [10],> 80 µg/mL
"COC(=O)[C@@H](N)CCC(=O)Nc1nccn1C [Example 8, methyl (2S)-2-amino-4-[(1-methylimiazol-2-yl)carbamoyl]butyrate dihydrochloride]",IC50,[1]; [9],5 µg/mL
same,IC50,[2]; [10],> 80 µg/mL
CCn1ccnc1N.Cl [2-Amino-1-ethylimidazole hydrochloride],IC50,[1]; [9],4.4 µg/mL
same,IC50,[2]; [10],> 80 µg/mL
same,IC50,[3],50 mM
Cl.Cn1ccnc1N [2-Amino-1-methylimidazole hydrochloride],IC50,[1]; [9],1.1 µg/mL
same,IC50,[2]; [10],> 80 µg/mL
same,IC50,Breast carcinoma Hs578T,7 µg/mL
same,IC50,[4],> 80 µg/mL
same,IC50,[5],> 80 µg/mL
same,IC50,Breast carcinoma SK-BR-3,> 80 µg/mL
same,IC50,Breast carcinoma T-47D,13 µg/mL
same,IC50,Colon carcinoma LS180,6.3 µg/mL
same,IC50,Colon carcinoma LoVo,7.6 µg/mL
same,IC50,Colon carcinoma SW403,5.2 µg/mL
same,IC50,Colon carcinoma SW48,8.6 µg/mL
same,IC50,Colon carcinoma SW620,11 µg/mL
same,IC50,Colon carcinoma SW948,3.9 µg/mL
same,IC50,Colon carcinoma T84,2.8 µg/mL
same,IC50,Colon carcinoma WiDr,1.1 µg/mL
same,IC50,Lung carcinoma A549,20 µg/mL
same,IC50,Throat cancer KB,> 80 µg/mL
same,Selective inhibition of proliferation (in words),[6],selectively inhibits the proliferation of the large intestinal cancer cell strains
same,"Proliferation rate (tumor volume, treated/control)",[7]; 50 mg/kg,76%
same,"Proliferation rate (tumor volume, treated/control)",[7]; 100 mg/kg,64%
same,"Proliferation rate (tumor volume, treated/control)",[7]; 200 mg/kg,49%
same,Inhibition of proliferation of transplanted WiDr (in words),[7]; nude mice,inhibited the proliferation of the human colon carcinoma cell strain WiDr transplanted to the nude mice in a concentration-dependent manner
same,IC50,[3],30 mM
"Cn1ccnc1NC(=O)OCc1ccccc1 [Example 4, 2-benzyloxycarbonylamino-1-methylimidazole hydrochloride]","Proliferation rate (tumor volume, treated/control)","[8]; 80 mg/kg, 3 times a day for 3 days, control = 100",70%
same,Inhibition of proliferation of transplanted WiDr (in words),[8]; nude mice,inhibited the proliferation of the human large intestinal cancer cell strain WiDr transplanted to nude mice
"Cn1ccnc1N=Cc1ccccc1 [Reference Example 7, N-(1-methylimidazol-2-yl)benzylideneamine]",IC50,[1]; [9],1.4 µg/mL
same,IC50,[2]; [10],> 80 µg/mL
Nc1ncc[nH]1.O=S(=O)(O)O [2-Aminoimidazole sulfate],IC50,[1],12 µg/mL
same,IC50,[2],> 80 µg/mL
"COC(=O)[C@@H](N)Cn1ccnc1N [Example 5, 3-(2-aminoimidazol-1-yl)-L-alanine methyl ester dihydrochloride]",IC50,[3],40 mM
"C=CCn1ccnc1N.Cl [Example 1, 2-amino-1-(2-propenyl)imidazole hydrochloride]",IC50,[1]; [9],4.2 µg/mL
same,IC50,[2]; [10],> 80 µg/mL
